What is called Ki is a dissociation constant, usually derived from enzyme kinetics or from competition with a known ligand. In general, Papp B→A refers to how fast a substance crosses the layer from the basolateral side.

The target of data set [1] is D(1B) dopamine receptor (Homo sapiens, UniProt P21918). Briefly: Displacement of [3H]SCH23390 from human dopamine D5 receptor expressed in HEK293T cells assessed as inhibition constant by competition binding assay. In kind it is cell-based. For orientation: In a radioligand displacement assay an active substance lowers the binding of a labelled ligand.
Data set [2] concerns the target T1, D(2) dopamine receptor (Homo sapiens, UniProt P14416). Nature of the data set: Displacement of [3H]-N-methylspiperone from human dopmaine D2S receptor expressed in CHO cell membrane assessed as inhibition constant by competition binding assay. In kind it is cell membranes.
Data set [3] deals with D(1A) dopamine receptor (Homo sapiens, UniProt P21728). Briefly: Displacement of [3H]SCH23390 from human dopamine D1 receptor expressed in HEK293T cells assessed as inhibition constant by competition binding assay. The data set is classed as cell-based.
In data set [4] the target is T2, 5-hydroxytryptamine receptor 1A (Homo sapiens, UniProt P08908).
T2 sequence (P08908 whole entry): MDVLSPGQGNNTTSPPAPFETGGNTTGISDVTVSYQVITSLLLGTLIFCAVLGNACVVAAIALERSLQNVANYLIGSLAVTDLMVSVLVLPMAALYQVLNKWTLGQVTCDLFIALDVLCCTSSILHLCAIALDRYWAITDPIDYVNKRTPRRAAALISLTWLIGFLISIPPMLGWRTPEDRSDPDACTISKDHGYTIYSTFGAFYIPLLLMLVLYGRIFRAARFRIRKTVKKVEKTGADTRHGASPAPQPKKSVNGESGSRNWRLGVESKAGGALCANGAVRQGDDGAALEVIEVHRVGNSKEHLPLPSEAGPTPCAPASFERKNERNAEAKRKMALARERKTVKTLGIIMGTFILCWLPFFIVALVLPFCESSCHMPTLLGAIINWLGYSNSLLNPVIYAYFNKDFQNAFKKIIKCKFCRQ
Nature of the data set: Displacement of [3H][…] from 5-HT1A receptor (unknown origin) expressed in HEK293T cells assessed as inhibition constant by competition binding assay. In kind it is cell-based.

For data set [5], the target named is T3, Alpha-1A adrenergic receptor (Homo sapiens, UniProt P35348).
T3 sequence (P35348 whole entry): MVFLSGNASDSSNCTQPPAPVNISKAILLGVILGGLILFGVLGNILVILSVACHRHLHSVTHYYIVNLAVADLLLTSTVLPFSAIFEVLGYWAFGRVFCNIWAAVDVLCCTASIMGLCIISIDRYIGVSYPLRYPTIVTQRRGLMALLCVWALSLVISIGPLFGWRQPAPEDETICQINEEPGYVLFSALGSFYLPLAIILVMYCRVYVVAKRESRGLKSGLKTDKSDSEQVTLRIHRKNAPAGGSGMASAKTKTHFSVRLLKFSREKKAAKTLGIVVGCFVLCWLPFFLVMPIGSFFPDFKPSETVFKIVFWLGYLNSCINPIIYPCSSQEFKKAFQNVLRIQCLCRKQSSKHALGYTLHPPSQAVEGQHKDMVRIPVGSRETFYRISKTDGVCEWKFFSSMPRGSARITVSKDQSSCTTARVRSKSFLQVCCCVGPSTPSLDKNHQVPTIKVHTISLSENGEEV
Briefly: Displacement of [3H]prazosin from adrenergic alpha 1A receptor (unknown origin) expressed in HEK293T cells assessed as inhibition constant by competition binding assay. In kind it is cell-based.

The nature of data set [6]: Retention time of the compound by HPLC(UV) method. The data set is classed as physicochemical.
Data set [7] concerns the target T1, D(2) dopamine receptor. Nature of the data set: Displacement of [3H]-N-methylspiperone from human dopmaine D2L receptor expressed in CHO cell membrane assessed as inhibition constant by competition binding assay. The data set is classed as cell membranes.
The nature of data set [8]: Drug metabolism in pooled rat liver microsomes assessed as O-demethylation mediated metabolite formation at 40 uM measured upto 60 mins in the presence of NADPH by HPLC(UV) analysis. The conditions noted are these: 1 h. In kind it is ADME, Microsome.
The nature of data set [9]: Drug metabolism in pooled rat liver microsomes assessed as hydroxylation mediated metabolite formation at 40 uM measured upto 60 mins in the presence of NADPH by HPLC(UV) analysis. The data set is classed as ADME, Microsome. The following applies: 1 h.
Data set [10] in a line: Permeability of the compound across basal to apical membrane in human Caco-2 cells at 50 uM incubated for 4 hrs by HPLC(UV) analysis. In kind it is ADME, cell-based. The following applies: caco-2, 4 h. (In general: Passage across Caco-2 layers is used to estimate intestinal permeability.)
A short description of data set [11]: Apparent permeability of the compound across basal to apical membrane in human Caco-2 cells at 50 uM incubated for 4 hrs by HPLC(UV) analysis. The data set is classed as ADME, cell-based.
Data set [12] concerns the target 5-hydroxytryptamine receptor 2A (Homo sapiens, UniProt P28223). Nature of the data set: Displacement of [3H]ketanserin from 5-HT2A receptor (unknown origin) expressed in HEK293T cells assessed as inhibition constant by competition binding assay. In kind it is cell-based.
Data set [13] deals with D(3) dopamine receptor (Homo sapiens, UniProt P35462). Briefly: Displacement of [3H]-N-methylspiperone from human dopmaine D3 receptor expressed in HEK293T cells assessed as inhibition constant by competition binding assay. The data set is classed as cell-based.
In data set [14] the target is T4, Alpha-2A adrenergic receptor (Homo sapiens, UniProt P08913).
T4 sequence (P08913 whole entry): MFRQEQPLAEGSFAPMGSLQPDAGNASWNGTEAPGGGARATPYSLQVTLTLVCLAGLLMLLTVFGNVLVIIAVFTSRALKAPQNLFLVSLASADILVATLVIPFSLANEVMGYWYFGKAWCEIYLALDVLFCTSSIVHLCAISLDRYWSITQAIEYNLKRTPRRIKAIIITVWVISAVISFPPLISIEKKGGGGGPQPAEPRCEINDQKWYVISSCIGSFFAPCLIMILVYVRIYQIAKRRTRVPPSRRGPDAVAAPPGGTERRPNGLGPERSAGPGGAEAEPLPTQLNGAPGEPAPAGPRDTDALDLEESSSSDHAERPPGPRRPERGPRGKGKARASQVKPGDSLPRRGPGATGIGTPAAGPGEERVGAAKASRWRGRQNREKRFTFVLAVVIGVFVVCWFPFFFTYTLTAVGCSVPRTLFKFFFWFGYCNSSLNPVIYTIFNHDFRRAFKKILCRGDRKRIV
Nature of the data set: Displacement of [3H]RX821002 from adrenergic alpha 2A receptor (unknown origin) expressed in HEK293T cells assessed as inhibition constant by competition binding assay. In kind it is cell-based.

Data set [15] can be described thus: Permeability of the compound across basal to apical membrane in human Caco-2 cells at 5 uM incubated for 4 hrs by HPLC(UV) analysis. The conditions noted are these: caco-2, 4 h. In kind it is ADME, cell-based.
Data set [16] in a line: Permeability of the compound across basal to apical membrane in human Caco-2 cells at 5 uM incubated for 4 hrs in the presence of valspodar by HPLC(UV) analysis. The data set is classed as ADME, cell-based. The conditions noted are these: caco-2, 4 h.
The nature of data set [17]: Permeability of the compound across basal to apical membrane in human Caco-2 cells at 10 uM incubated for 4 hrs by HPLC(UV) analysis. In kind it is ADME, cell-based. The conditions noted are these: caco-2, 4 h.
Data set [18] is described as follows: Permeability of the compound across basal to apical membrane in human Caco-2 cells at 10 uM incubated for 4 hrs in the presence of valspodar by HPLC(UV) analysis. In kind it is ADME, cell-based. The conditions noted are these: caco-2, 4 h.
Data set [19] in a line: Metabolic stability in pooled rat liver microsomes assessed as parent compound remaining at 40 uM measured after 60 mins in the presence of NADPH by HPLC(UV) analysis. In kind it is ADME, Microsome. The conditions noted are these: read-out: Stability.

Sequence of D(3) dopamine receptor (P35462 whole entry): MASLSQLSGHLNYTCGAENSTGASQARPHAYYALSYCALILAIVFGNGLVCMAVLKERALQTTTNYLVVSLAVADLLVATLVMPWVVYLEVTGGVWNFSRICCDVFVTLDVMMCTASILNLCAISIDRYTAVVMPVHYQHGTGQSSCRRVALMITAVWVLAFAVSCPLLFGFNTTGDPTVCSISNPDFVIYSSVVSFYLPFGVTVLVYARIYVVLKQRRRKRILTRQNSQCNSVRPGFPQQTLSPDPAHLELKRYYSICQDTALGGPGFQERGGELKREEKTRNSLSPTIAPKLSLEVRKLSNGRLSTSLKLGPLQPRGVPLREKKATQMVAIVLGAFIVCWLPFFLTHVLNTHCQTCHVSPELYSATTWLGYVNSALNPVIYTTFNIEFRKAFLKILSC
Sequence of D(1A) dopamine receptor (P21728 whole entry): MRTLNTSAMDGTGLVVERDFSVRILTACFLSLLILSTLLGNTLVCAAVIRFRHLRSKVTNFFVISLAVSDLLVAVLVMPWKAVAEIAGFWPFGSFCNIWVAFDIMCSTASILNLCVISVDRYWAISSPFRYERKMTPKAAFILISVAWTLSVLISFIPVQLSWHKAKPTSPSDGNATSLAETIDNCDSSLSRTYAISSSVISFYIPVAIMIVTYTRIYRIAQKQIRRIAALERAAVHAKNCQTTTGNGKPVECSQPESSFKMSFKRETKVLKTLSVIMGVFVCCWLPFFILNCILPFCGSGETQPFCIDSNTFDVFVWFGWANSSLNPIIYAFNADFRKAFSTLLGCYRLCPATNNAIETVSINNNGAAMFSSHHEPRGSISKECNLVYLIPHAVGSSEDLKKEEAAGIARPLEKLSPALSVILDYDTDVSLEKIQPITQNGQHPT
Sequence of D(1B) dopamine receptor (P21918 whole entry): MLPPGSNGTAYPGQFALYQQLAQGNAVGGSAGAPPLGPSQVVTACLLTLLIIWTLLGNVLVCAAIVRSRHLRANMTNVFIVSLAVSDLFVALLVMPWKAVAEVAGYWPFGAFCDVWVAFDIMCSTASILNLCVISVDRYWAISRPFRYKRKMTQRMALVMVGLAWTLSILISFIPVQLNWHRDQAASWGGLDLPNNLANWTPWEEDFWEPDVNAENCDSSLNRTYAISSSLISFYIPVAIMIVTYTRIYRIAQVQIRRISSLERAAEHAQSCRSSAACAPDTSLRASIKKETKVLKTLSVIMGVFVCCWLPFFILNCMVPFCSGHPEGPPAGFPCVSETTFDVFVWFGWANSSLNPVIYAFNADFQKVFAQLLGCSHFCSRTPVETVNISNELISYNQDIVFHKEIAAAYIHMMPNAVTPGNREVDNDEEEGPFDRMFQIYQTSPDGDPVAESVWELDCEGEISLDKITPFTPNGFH
T1 sequence (P14416 whole entry): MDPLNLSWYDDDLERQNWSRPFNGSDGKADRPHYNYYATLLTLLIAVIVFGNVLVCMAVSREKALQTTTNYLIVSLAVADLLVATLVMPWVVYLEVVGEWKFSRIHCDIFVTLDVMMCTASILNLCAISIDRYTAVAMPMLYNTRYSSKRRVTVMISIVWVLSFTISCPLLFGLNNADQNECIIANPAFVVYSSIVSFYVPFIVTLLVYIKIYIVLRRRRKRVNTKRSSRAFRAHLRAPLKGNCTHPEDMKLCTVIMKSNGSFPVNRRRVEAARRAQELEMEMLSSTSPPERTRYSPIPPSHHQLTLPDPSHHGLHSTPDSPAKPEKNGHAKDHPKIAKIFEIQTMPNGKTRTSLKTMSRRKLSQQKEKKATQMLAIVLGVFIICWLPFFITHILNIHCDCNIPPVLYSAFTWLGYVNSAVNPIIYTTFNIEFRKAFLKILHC
Sequence of 5-hydroxytryptamine receptor 2A (P28223 whole entry): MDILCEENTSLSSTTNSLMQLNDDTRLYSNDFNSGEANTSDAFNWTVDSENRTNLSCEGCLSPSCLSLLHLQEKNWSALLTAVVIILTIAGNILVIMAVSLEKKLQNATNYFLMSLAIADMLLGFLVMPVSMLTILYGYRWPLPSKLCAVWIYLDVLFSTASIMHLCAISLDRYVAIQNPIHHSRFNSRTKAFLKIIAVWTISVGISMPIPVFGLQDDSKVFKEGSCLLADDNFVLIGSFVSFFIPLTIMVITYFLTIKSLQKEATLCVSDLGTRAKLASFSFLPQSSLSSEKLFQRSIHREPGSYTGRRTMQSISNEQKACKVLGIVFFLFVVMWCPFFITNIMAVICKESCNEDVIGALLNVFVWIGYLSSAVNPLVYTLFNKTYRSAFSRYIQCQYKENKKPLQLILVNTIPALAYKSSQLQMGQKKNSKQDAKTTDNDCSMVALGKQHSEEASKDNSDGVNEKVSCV

Take `COc1ccccc1N1CCN(CCCNC(=O)Nc2ccccc2-c2ccc(-c3ccccc3)cc2)CC1`: the Ki stood at 0.35 µM in data set [1]; 36 nM in data set [2]; 16 nM in data set [3]; 100 nM in data set [4]; 8.2 nM in data set [5]; 52 nM in data set [7]. Besides, the Ki in data set [12] was 160 nM; in data set [13], 44 nM; in data set [14] it was 150 nM. For the same compound, the Retention_time in data set [6] worked out at 4.37 min. For the same compound, the Drug metabolism entry in [8] and in [9] was “Metabolite_Detected” throughout. In addition, in data set [10], the permeability entry is “Impermeable”. Further, the Papp B→A at 4 h, 50 µM in data set [11] was greater than 1 ×10⁻⁶ cm/s.
Turning to `C[C@H]1O[C@@H](O[C@H]2[C@@H](O)C[C@H](O[C@H]3[C@@H](O)C[C@H](O[C@H]4CC[C@@]5(C)[C@H](CC[C@@H]6[C@@H]5C[C@@H](O)[C@]5(C)[C@@H](C7=CC(=O)OC7)CC[C@]65O)C4)O[C@@H]3C)O[C@@H]2C)C[C@H](O)[C@@H]1O` [DIGOXIN], the permeability in [15] is 22.9%; in data set [16], 12.1%.
For `COc1ccccc1N1CCN(CCCNC(=O)Nc2ccccc2-c2ccccc2)CC1`, the inhibition constant Ki in [1] was 4.5 µM; in data set [2], 100 nM; in [3], 730 nM; in [4], 25 nM; in [5], 7.1 nM; in [7], 210 nM. In addition, the results for the Ki in data set [12], in data set [13] and in data set [14] were 960 nM, 57 nM and 28 nM, respectively. Moreover, the permeability amounted to 22.2% in [17] and 18.3% in [18]. This compound displayed a Retention_time in [6] of 3.91 min. The Drug metabolism entry in data set [8] and in data set [9] was “Metabolite_Detected” each time. Also, in [19], the remaining at 1 h, 40 µM came to 57%.
Consider `COc1ccccc1N1CCN(CCCNC(=O)NCc2ccccc2-c2ccccc2)CC1`, for which the Ki was found to be 3.3 µM in data set [1]; 120 nM in data set [2]; 480 nM in [3]; 62 nM in data set [4]; 11 nM in data set [5]; 190 nM in data set [7]. For the same compound, the inhibitory constant (Ki) in [12] stood at 140 nM; in data set [13], 270 nM; in data set [14] it was 120 nM. Also, the permeability in data set [17] was 15.7%; in data set [18] it was 10.5%. For the same compound, in data set [6], the Retention_time is given as 4.09 min. For the same compound, the Drug metabolism result in data set [8] and in data set [9] was “Metabolite_Detected” each time. Also, the remaining at 1 h, 40 µM in data set [19] was 56%.

The record behind these values is ChEMBL document CHEMBL5346968, “Exploring Structural Determinants of Bias among D4 Subtype-Selective Dopamine Receptor Agonists” (J Med Chem, 2023).
